The test has as its target Cyclin-dependent kinase 2 (CDK2) (Homo sapiens, UniProt P24941).

Each structure is given as a SMILES string.

As usually defined, the Km is the concentration of substrate that gives half-maximal velocity. For the molecule `Nc1ncnc2c1ncn2[C@@H]1O[C@H](COP(=O)(O)OP(=O)(O)OP(=O)(O)O)[C@@H](O)[C@H]1O` [ATP], the Km was roughly 100 µM.

For the origin of these results see publication PMC3446636 (2012).
